Where a name gives a salt, the structure may show the parent alone. Bounds are passed on as bounds.

One assay has as its system BALB/c male mice. Put plainly: Passive Avoidance of Mice in a Shuttle Chamber, memory disturbed by scopolamine (Example 7). The note with it: scopolamine 0.3 mg/kg, injected 30 minutes before training. Type of assay: in vivo. Here is the method:
Example 7. […] A shuttle chamber (Ugo Basile, Italy) consisted of two sections was used. […] The sections were connected via a hole which could be shut with a vertical door. The floor was made of transverse metal bars on which DC current impulses could be fed. Experiments were carried out on aged male mice of line BALB/c weighing 20-24 grams. […] Each group consisted of at least 8 animals. The animals were placed in the light section, and the latent period of the first entry into the dark chamber was registered. Then the vertical door was closed and the animal was punished by 0.6 mA DC current for 3 seconds. After that the animal was carried back to its living cell. In 22-24 hours the same animal was placed in the light section of the shuttle chamber once again and the latent period before its entry into the dark section, the total time of its stay in the light section and the number of entries into the dark section were registered. Each observation lasted for 5 minutes. The experiment was carried out during the day time in an isolated laboratory using white noise at a level of about 70 decibel above the human hearing threshold. Scopolamine causes the disturbance of training (memory loss) which results in […]. The fact that 5-HT6 receptor antagonists can improve the learning ability that has been disturbed by scopolamine is regarded as evidence for their nootropic effect.
Take `Cc1ccc2c(c1)c1c(n2CCc2ccncc2)CCN(C)C1.Cl` [1.2.1(2)HCl, 2,8-dimethyl-5-[2-(pyridin-4-yl)ethyl]-2,3,4,5-tetrahydro-1H-pyrido[4,3-b]indole hydrochloride]: the “nootropic action (passive avoidance, FIGS. 2-4)” value is reported as “exhibit a nootropic action which is the most prominent”. As for `Cc1ccc2c(c1)c1c(n2CCc2ccccn2)CCN(C)C1.Cl` [1.2.1(4)HCl, 2,8-dimethyl-5-[2-(pyridin-2-yl)ethyl]-2,3,4,5-tetrahydro-1H-pyrido[4,3-b]indole hydrochloride], the “nootropic action (passive avoidance, FIGS. 2-4)” value was “exhibit a nootropic action which is the most prominent”.

In a further assay the test system is SHK male mice. In words: Recognition of New Objects by Mice Under Scopolamine and MK-801. The note with it: scopolamine 1 mg/kg and MK-801 0.2 mg/kg. It is filed as in vivo. Here is the method: The experiments were carried out in a closed cross shaped labyrinth which consisted of 4 peripheral sections connected with the central chamber via a 7×7 cm hole. The labyrinth was made of black plastic and its sections were of 14×14×14 cm size. The top cover of the labyrinth was transparent.
A mouse was placed in the central section of the labyrinth and allowed to investigate the environment. A mouse was considered to have entered a section once all of its four paws were inside the chamber. A test was considered to be completed when the mouse had moved 12 times between the sections, having made a total of 13 visits. The floor of the labyrinth was cleaned after each animal.
With each mouse the test was carried out twice with 1 hour interval.
During the first test, each section of the labyrinth contained a circular plastic cup of 3 cm height and 7 cm diameter. During the second test the cover in each of the two opposing sections was replaced by a conical glass bulb of 7 cm height and 4 cm across the bottom. The time that the mice spent in each section of the labyrinth was registered and the index of new object recognition was calculated as the ratio of the time spent in the sections with the bulbs to the time spent in all sections of the labyrinth. If no preference is given to the sections with new objects the index is 0.5.
When new objects appear the mice spend more time in the section containing them that results in an increased recognition index. Scopolamine (1 mg/kg) and MK-801 (0.2 mg/kg) disturbed learning (memory) that leads to lowering of the recognition index.
Turning to `CC12CC3CC(C)(C1)CC(N)(C3)C2` [memantine], the “nootropic action (new object recognition, FIG. 13-14)” value is “nootropic action”.

The next assay relates to calcium canals regulated by the intracellular calcium depot. Put plainly: Histamine-induced calcium stream in SK-N-SH cells, Phase 2 (lowering of intracellular calcium concentration). It is filed as cell-based. The note with it: Homo sapiens, 10 μM histamine, Fura 2 AM, Phase 2: discharge of intraplasmatic calcium.
By EC50 is commonly meant the concentration at which the effect is half-maximal. Consider `CN1CCc2c(c3ccccc3n2/C=C\c2ccccc2)C1` [1.1(1), cis-2-methyl-5-(2-phenylethenyl)-2,3,4,5-tetrahydro-1H-pyrido[4,3-b]indole], for which the EC50 stood at 0.18 µM. The same measure, in the same setting: in the case of `CN1CCc2c(c3ccccc3n2/C=C/c2ccccc2)C1` [1.1(2), trans-2-methyl-5-(2-phenylethenyl)-2,3,4,5-tetrahydro-1H-pyrido[4,3-b]indole] it was 2.13 µM; in that of `CN1CCc2c(c3ccccc3n2/C=C/c2ccncc2)C1` [1.1(3), trans-2-methyl-5-[2-(pyridin-4-yl)ethenyl]-2,3,4,5-tetrahydro-1H-pyrido[4,3-b]indole], over 10 µM; in that of `CN1CCc2c(c3ccccc3n2/C=C\c2cccnc2)C1` [1.1(4), cis-2-methyl-5-[2-(pyridin-3-yl)ethenyl]-2,3,4,5-tetrahydro-1H-pyrido[4,3-b]indole], over 10 µM.

Take `CN1CCc2c(c3ccccc3n2/C=C/c2ccccn2)C1` [1.1(5), trans-2-methyl-5-[2-(pyridin-2-yl)ethenyl]-2,3,4,5-tetrahydro-1H-pyrido[4,3-b]indole]: the concentration for a half-maximal effect (EC50) was over 10 µM. On the same count and under the same terms, the value for `CN1CCc2c(c3cc(F)ccc3n2/C=C\c2ccccc2)C1` [1.1.1(1), cis-2-methyl-5-(2-phenylethenyl)-8-fluoro-2,3,4,5-tetrahydro-1H-pyrido[4,3-b]indole] was 0.15 µM. On the same count and under the same terms, in the case of `CN1CCc2c(c3cc(F)ccc3n2/C=C\c2cccnc2)C1` [1.1.1(2), cis-2-methyl-5-[2-(pyridin-3-yl)ethenyl]-8-fluoro-2,3,4,5-tetrahydro-1H-pyrido[4,3-b]indole] it was over 10 µM; in that of `Cc1ccc2c(c1)c1c(n2/C=C\c2ccccc2)CCN(C)C1` [1.1.1(3), cis-2,8-dimethyl-5-(2-phenylethenyl)-2,3,4,5-tetrahydro-1H-pyrido[4,3-b]indole], 0.154 µM; in that of `CN1CCc2c(c3cc(F)ccc3n2/C=C\c2cccc(F)c2)C1` [1.1.1(6), cis-2-methyl-5-[2-(3-fluorophenyl)ethenyl]-8-fluoro-2,3,4,5-tetrahydro-1H-pyrido[4,3-b]indole], 0.19 µM.

`CN1CCc2c(c3ccccc3n2CCc2ccncc2)C1` [1.2(2)HCl, 2-methyl-5-[2-(pyridin-4-yl)ethyl]-2,3,4,5-tetrahydro-1H-pyrido[4,3-b]indole hydrochloride]: the EC50 amounted to 0.5 µM. Still for that read-out and setting: the value for `CN1CCc2c(c3ccccc3n2CCc2cccnc2)C1` [1.2(3)HCl, 2-methyl-5-[2-(pyridin-3-yl)ethyl]-2,3,4,5-tetrahydro-1H-pyrido[4,3-b]indole hydrochloride] was 0.412 µM.

For `CN1CCc2c(c3ccccc3n2CCc2ccccn2)C1` [1.2(4)HCl, 2-methyl-5-[2-(pyridin-2-yl)ethyl]-2,3,4,5-tetrahydro-1H-pyrido[4,3-b]indole hydrochloride], the EC50 was 0.93 µM. Same read-out and setting: in the case of `Cc1ccc2c(c1)c1c(n2CCc2ccncc2)CCN(C)C1.Cl` [1.2.1(2)HCl, 2,8-dimethyl-5-[2-(pyridin-4-yl)ethyl]-2,3,4,5-tetrahydro-1H-pyrido[4,3-b]indole hydrochloride] it was 3.98 µM; in that of `Cc1ccc2c(c1)c1c(n2CCc2cccnc2)CCN(C)C1` [1.2.1(3)HCl, 2,8-dimethyl-5-[2-(pyridin-3-yl)ethyl]-2,3,4,5-tetrahydro-1H-pyrido[4,3-b]indole hydrochloride], 0.579 µM. `Cc1ccc2c(c1)c1c(n2CCc2ccccn2)CCN(C)C1.Cl` [1.2.1(4)HCl, 2,8-dimethyl-5-[2-(pyridin-2-yl)ethyl]-2,3,4,5-tetrahydro-1H-pyrido[4,3-b]indole hydrochloride]: the 50% effective concentration (EC50) turned out to be 10 µM. The same measure, in the same setting: the value for `Cc1ccc2c(c1)c1c(n2CCc2cnccn2)CCN(C)C1` [1.2.1(6), 2,8-dimethyl-5-[2-(pyrazin-2-yl)ethyl]-2,3,4,5-tetrahydro-1H-pyrido[4,3-b]indole] was 7.94 µM. Same read-out and setting: in the case of `CN1CCc2c(c3cc(F)ccc3n2CCc2ccccc2)C1` [1.2.1(7)HCl, 2-methyl-5-(2-phenylethyl)-8 fluoro-2,3,4,5-tetrahydro-1H-pyrido[4,3-b]indole hydrochloride] it was 0.13 µM; in that of `CN1CCc2c(c3cc(F)ccc3n2CCc2ccncc2)C1` [1.2.1(8)HCl, 2-methyl-5-[2-(pyridin-4-yl)ethyl]-8-fluoro-2,3,4,5-tetrahydro-1H-pyrido[4,3-b]indole hydrochloride], 0.47 µM; in that of `CN1CCc2c(c3cc(F)ccc3n2CCc2cccnc2)C1` [1.2.1(9)HCl, 2-methyl-5-[2-(pyridin-3-yl)ethyl]-8-fluoro-2,3,4,5-tetrahydro-1H-pyrido[4,3-b]indole hydrochloride], 0.297 µM.

For `CN1CCc2c(c3cc(F)ccc3n2CCc2ccccn2)C1` [1.2.1(10)HCl, 2-methyl-5-[2-(pyridin-2-yl)ethyl]-8-fluoro-2,3,4,5-tetrahydro-1H-pyrido[4,3-b]indole hydrochloride], the EC50 is 0.61 µM. The same measure, in the same setting: in the case of `Cc1ccc(CCn2c3c(c4cc(F)ccc42)CN(C)CC3)cn1` [1.2.1(11)HCl, 2-methyl-5-[2-(6-methylpyridin-3-yl)ethyl]-8-fluoro-2,3,4,5-tetrahydro-1H-pyrido[4,3-b]indole hydrochloride] it was 0.73 µM.

As for `CN1CCc2c(c3cccc(F)c3n2CCc2ccccc2)C1` [1.2.2(1)HCl], the EC50 turned out to be 0.25 µM. On the same count and under the same terms, in the case of `CN1CCc2c(c3ccccc3n2C#Cc2ccccc2)C1` [1.3(1), 2-methyl-5-phenylethynyl-2,3,4,5-tetrahydro-1H-pyrido[4,3-b]indole] it was 10.1 µM; in that of `CN1CCc2c(c3ccccc3n2C#Cc2cccnc2)C1` [1.3(3), 2-methyl-5-(pyridin-3-ylethynyl)-2,3,4,5-tetrahydro-1H-pyrido[4,3-b]indole], over 10 µM.

On to `CN1CCc2c(c3cc(F)ccc3n2C#Cc2cccnc2)C1` [1.3.1(3), 2-methyl-5-(pyridin-3-ylethynyl)-8-fluoro-2,3,4,5-tetrahydro-1H-pyrido[4,3-b]indole], for which the concentration for a half-maximal effect (EC50) is over 10 µM. On to `Cc1ccc2c(c1)c1c(n2C#Cc2ccccc2)CCN(C)C1` [1.3.1(5), 2,8-dimethyl-5-phenylethynyl-2,3,4,5-tetrahydro-1H-pyrido[4,3-b]indole], for which the EC50 is over 10 µM. Take `Cc1ccc2c(c1)c1c(n2C#Cc2cccnc2)CCN(C)C1` [1.3.1(7), 2,8-dimethyl-5-(pyridin-3-ylethynyl)-2,3,4,5-tetrahydro-1H-pyrido[4,3-b]indole]: the concentration for a half-maximal effect (EC50) is over 10 µM.

The values are drawn from patent US20190233409A1, “SUBSTITUTED 2,3,4,5-TETRAHYDRO-1H-PYRIDO[4,3-B]INDOLES, METHODS FOR USE THEREOF” (priority 2017, published 2019).
